The source of these data is patent publication US10343974B1, “Cyclohexanol ethers as mediterranean fruit fly attractants” (The United States of America, as Represented by the …, priority 2018, dated 2019).

For series [1], the system named is Mediterranean fruit flies. In words: Field cage bioassay: attraction of male Mediterranean fruit flies to Jackson traps baited with PVC plugs. The format is in vivo, Ceratitis capitata. Particulars: grand mean capture ± 2 pooled standard deviations; ~100 mg PVC plug with ~40% compound in Jackson trap; screened field cage, 24-hour period; 150 male flies released per cage; same letter = not significantly different (P >0.05). On the procedure: Assessment of Biological Properties: Compounds were assessed for the ability to attract Mediterranean fruit flies in an enclosed field cage.
Formulation of compounds on PVC disks: All test compounds were >95% pure by GC-MS, except for (1R*,2R*,5R*)-sec-butyl 5-methoxy-2-methylcyclohexanecarboxylate which was tested as a mixture of diastereomers due to the use of (±)-2-butanol in the formation of the ester, and were formulated as ˜100 mg polymeric plugs containing ˜40% by mass of a compound of Formula (I). A typical protocol dissolved polyvinyl chloride (PVC) (864 mg), dibutyl phthalate (DBP) (432 mg), dioctyl phthalate (DOP) (432 mg), (1R*,2R*,5R*)-ethyl 5-methoxy-2-methylcyclohexanecarboxylate (1) (1.152 g) in THF (8.64 g). The mixture was then pipetted (˜400 mg) into respective porcelain wells. The THF was allowed to evaporate by warming the porcelain plate at 40° C. for 15 minutes, and then standing at room temperature until a constant weigh was achieved, to afford ˜26 PVC-attractant disks with a mass of 104.0±3.4 mg, (x±s).
Bioassays: Compounds were evaluated in screened field cages (3×3×2.5 meters) over a 24-hour period. Each field cage housed a single carousel, centered on the ceiling about 2 meters above the floor of the enclosure, which rotated (˜1 revolution/min) 8 equally-spaced Jackson traps. A polymeric plug containing a test compound was placed in a small basket in each Jackson trap with a sticky insert to record the number of fly catches. Test compounds (6) were screened together with two “standard” attractants, TML (FarmaTech, USA) and (±)-CER-B1 (prepared according to Khrimian, A., et al., Tetrahedron, 59: 5475 (2003)). A typical experiment (1) used 3 cages and began between 9-10 am each day, (2) TML and (±)-CER-B were arranged at two directly opposing poles of the carousel with 6 test compounds (3 on each side of TML and (±)-CER-B1) randomly placed relative to the standards, (3) 6 randomly-selected patterns were tested over a 2-day period, with the same sequence of patterns repeated three times (days 1 & 2, days 3 & 4, and days 5 & 6) for a total of 3 replicates, (4) each 2-day period (days 1 & 2, days 3 & 4, and days 5 & 6) used a different cohort of 7-8 day old laboratory reared male Mediterranean fruit flies (n=3), and (5) 150 male Mediterranean fruit flies were released each morning per 24-h cage bioassay for a total of 900 flies per cohort and 2700 flies during the entire testing period. A fresh lure was used for each cage experiment (n=18). Mean fly catch numbers are depicted in the table below.
For each cohort, a single-factor ANOVAs was applied to test the null hypothesis that the mean capture of a particular lure across both days (six trials total, three each day) could be used to estimate attraction. […] An additional single-factor ANOVAs was applied to test the null hypothesis that the grand mean capture of a particular lure could be used to estimate attraction, independent of the cohort. Again, none of the lure-respective ANOVAs were significant, a result that provided evidence to support congruence in the biological response across all cages, days, and cohorts. Also depicted in the table below, the grand mean capture ±2 pooled standard deviations (2 spooled) (Skoog, D. and Leary, J., Principles of Instrumental Analysis, John Wiley & Sons, Eds: New York, 1992). In general, the most attractive compounds in the above bioassay captured a similar (statistically equivalent) or greater number of flies relative to trimedlure.

For series [2] the following is noted: DeMilo 1992; cited from earlier work.
The test system of another series is male medfly. Particulars: classification in the literature; cited from earlier work.

As for `CO[C@@H]1CC[C@@H](C)[C@H](C(=O)OCC(F)(F)F)C1` (relative stereo) [(1R*,2R*,5R*)-2,2,2-trifluoroethyl 5-methoxy-2-methylcyclohexanecarboxylate], the “Mean Catch per replicate” value in series [1] worked out at 94.0 ± 11.5 days.
Same read-out and setting: then `CCOC(=O)[C@@H]1C[C@H](OC)CC[C@H]1C` (relative stereo) [(1R*,2R*,5R*)-ethyl 5-methoxy-2-methylcyclohexanecarboxylate], with 91.0 ± 9.8 days; and `CO[C@@H]1CC[C@@H](C)[C@H](C(=O)OC(C)C)C1` (relative stereo) [(1R*,2R*,5R*)-isopropyl 5-methoxy-2-methylcyclohexanecarboxylate], with 64.7 ± 10.2a; and `CCCOC(=O)[C@@H]1C[C@H](OC)CC[C@H]1C` (relative stereo) [(1R*,2R*,5R*)-propyl 5-methoxy-2-methylcyclohexanecarboxylate], with 38.0 ± 9.7b.
Take `CCC(C)OC(=O)[C@@H]1C[C@H](OC)CC[C@H]1C` (relative stereo) [(1R*,2R*,5R*)-sec-butyl 5-methoxy-2-methylcyclohexanecarboxylate]: in series [1], the “Mean Catch per replicate” value was determined as 13.7 ± 3.0c.
For `CO[C@@H]1CC[C@@H](C)[C@H](C(=O)OC(C)(C)C)C1` (relative stereo) [(1R*,2R*,5R*)-tert-butyl 5-methoxy-2-methylcyclohexanecarboxylate], in series [1], the “Mean Catch per replicate” value came to 9.0 ± 2.8c.
Still for that read-out and setting: under `CCOC(=O)[C@@H]1C[C@H](I)CC[C@H]1C` (relative stereo) [Ceralure-B1, (1R*,2R*,5R*)-ethyl 5-iodo-2-methylcyclohexanecarboxylate, reference compound] stands 94.0 ± 10.7 days.
Consider “ethyl esters of 4 (and 5)-iodo-2-methylcyclohexane-1-carboxylate [CER]”, for which the “stability in formulations and the environment” value in series [2] is recorded as “unstable”.
“tert-butyl 4- (and 5)-chloro-2-methylcyclohexanecarboxylate [Trimedlure, reference compound]”: the “Mean Catch per replicate” value in series [1] worked out at 82.7 ± 11.3 days. Moreover, the “attractant strength for male medfly” value in the series on male medfly is “weak attractant”.
